According to patent publication US9233078B2, “Nanoparticles comprising a non-ionizable polymer and an Amine-functionalized methacrylate copolymer” (Bend Research, Inc., priority 2007, dated 2016):
≈ marks a conversion by molar mass, not a printed value. Each block holds one compound with its values, some of them ahead of it.

Key:
[1] = Aqueous solubility of the drugs; type: physicochemical; details: water
Log P of Drug 1 = type: physicochemical; details: octanol/water
Excerpt: The first property of hydrophobic drugs is that they are extremely hydrophobic. Log P, defined as the base 10 logarithm of the ratio of the drug solubility in octanol to the drug solubility in water, is a widely accepted measure of hydrophobicity. By “extremely hydrophobic” is meant that the Log P value of the drug is at least 4.0, preferably at least 4.5, and most preferably at least 5.0. Log P may be measured experimentally or calculated using methods known in the art. When using a calculated value for Log P, the highest value calculated using any generally accepted method for calculating Log P is used. Calculated Log P values are often referred to by the calculation method, such as Clog P, Alog P, and Mlog P. The Log P may also be estimated using fragmentation methods, such as Crippen's fragmentation method (27 J. Chem. Inf. Comput. Sci. 21 (1987)); Viswanadhan's fragmentation method (29 J. Chem. Inf. Comput. Sci. 163 (1989)); or Broto's fragmentation method (19 Eur. J. Med. Chem.-Chim. Theor. 71 (1984). Preferably the Log P value is calculated by using the average value estimated using Crippen's, Viswanadhan's, and Broto's fragmentation methods.

[2] = Free drug analysis, 100,000-dalton cutoff filtration and HPLC; type: physicochemical; details: 2.5 mgA/mL suspension in deionized water with dextrose, about 300 mOsm
Protocol: The suspension was filtered using a centrifuge tube filter with a 100,000-dalton molecular-weight cutoff. The filtrate solution was assayed by high-performance liquid chromatography (HPLC).

[3] = for Observations: pH 6.5
Protocol: The polymer is a poorly aqueous soluble non-ionizable polymer. […] An appropriate PBS solution is an aqueous solution comprising 20 mM sodium phosphate (Na2HPO4), 47 mM potassium phosphate (KH2PO4), 87 mM NaCl, and 0.2 mM KCl, adjusted to pH 6.5 with NaOH. A test to determine whether the polymer is poorly aqueous soluble may be performed as follows. The polymer is initially present in bulk powder form with average particle sizes of greater than about 1 micron. The polymer alone is administered at a concentration of 0.2 mg/mL to the PBS solution and stirred for approximately 1 hour at room temperature. Next, a nylon 0.45 μm filter is weighed, and the polymer solution is filtered. The filter is dried overnight at 40° C., and weighed the following morning. The amount of polymer dissolved is calculated from the amount of polymer added to the PBS solution minus the amount of polymer remaining on the filter (mg). […] First, 0.2 mg/mL of the polymer was added to a PBS solution consisting of 20 mM Na2HPO4, 47 mM KH2PO4, 87 mM NaCl, and 0.2 mM KCl, adjusted to pH 6.5 with NaOH. The polymer was stirred in the PBS solution for approximately 1 hour at room temperature. Next, the polymer solution was filtered through a nylon 0.45 μm filter that was weighed dry prior to filtration. The filter was dried overnight at 40° C., and weighed the following morning. The amount of soluble polymer was calculated from the amount of polymer added to form the polymer solution minus the amount of polymer remaining on the filter.

Compound: Cc1onc(-c2ccccc2)c1-c1ccc(S(N)(=O)=O)cc1 [Drug 1, 4-(5-methyl-3-phenyl-4-isoxazolyl) benzenesulfonamide]
solubility [1]: ~10 µg/mL (≈ 31.8 µM)
logP (Log P of Drug 1): ~3
Free Drug [2]: 11 µg/mL

Compound: CC[C@@H]1C[C@H](N(Cc2cc(C(F)(F)F)cc(C(F)(F)F)c2)C(C)=O)c2cc(C(F)(F)F)ccc2N1C(=O)OC(C)C [Drug 2, [2R,4S] 4-[acetyl-(3,5-bis-trifluoromethyl-benzyl)-amino]-2-ethyl-6-trifluoromethyl-3,4-dihydro-2H-quinoline-1-carboxylic acid isopropyl ester]
solubility [1]: < 1 µg/mL

Compound: Cc1ccc(C)c(Cc2nc(CO)nn2-c2ccc(S(N)(=O)=O)cc2F)c1 [Drug 3]
solubility [1]: ~650 µg/mL (≈ 1660 µM)

Other lines, results leading:

solubility [1]: ~740 µg/mL (≈ 1650 µM)
Compound: COCCN(C)Cc1nc(Cc2cccc(C)c2)n(-c2ccc(S(N)(=O)=O)cc2F)n1 [Drug 4]

solubility [1]: ~490 µg/mL (≈ 1280 µM)
Compound: CCNC1CN(CCCOC)S(=O)(=O)c2sc(S(N)(=O)=O)cc21 (centres unmarked) [Drug 5, brinzolamide, reference compound]

Amount Soluble at pH 6.5 [3]: <0.001 mg/mL
Observations [3]: Fine particle
Compound: cellulose triacetate

Amount Soluble at pH 6.5 [3]: <0.001 mg/mL
Observations [3]: Fine particle
Compound: ethylcellulose
